Earlier results on one molecule are cited in patent publication US20230225964A1, “MICROSTIRRING DEVICES AND TECHNIQUES FOR ENHANCING BIOAVAILABILITY OF ORALLY ADMINISTERED DRUGS” (The Regents of the University of California, priority 2022, published 2023).

Converted amounts (≈) assume the structure as drawn.

As to `N[C@@H](Cc1ccc(O)c(O)c1)C(=O)O` [L-Dopa, levodopa], the solubility in water was 66 mg/mL (≈ 335 mM).
